One may read the IC50 as the concentration needed to halve the response being measured.

Entries after “also recorded” stand apart in the source; their conditions may differ. Bounds are passed on as bounds.

The values that follow come from article PMC4685510, “A Cell Biologist’s Field Guide to Aurora Kinase Inhibitors” (Frontiers in Oncology, 2015).

Assay [1] deals with pH3(Ser 28) in HeLa cells. Nature of the assay: Substrate phosphorylation immunofluorescence assay, pH3(Ser 28), HeLa. It counts as cell-based, human. As to conditions: for pHistone H3 (Ser28) IC50: 8 h inhibitor treatment.
Method: Asynchronous cells were incubated with vehicle (DMSO) or different inhibitor doses for 8 h and then fixed and labeled with a mixture of three antibodies directed against pLATS2(Ser 83), pH3(Ser 28), and MPM2 [which detects mitotic phosphoepitopes; ([86])]. While both the anti-pLATS2(Ser 83) and MPM2 antibodies are mouse monoclonals, they are of different IgG subclasses [IgG2b for anti-pLATS2(Ser 83) and IgG1 for MPM2], and can thus be detected with subclass-specific secondary antibodies (Table S3 in Supplementary Material).
Cells were imaged in 4 channels to visualize pLATS2(Ser 83), pH3(Ser 28), MPM2, and DNA (labeled with Hoechst) and mitotic cells were segmented based on their bright MPM2 labeling (Figure 3E). Intensity and area thresholds were set to select the pLATS2(Ser 83) foci and the pH3(Ser 28)-labeled chromatin in their respective channels in DMSO-treated control cells and the same thresholds were applied for inhibitor-treated cells. The mean fluorescence intensity per pixel was measured to assess the activities of the kinases targeting these two substrate phosphorylation sites.
After 8 h cells were fixed with 4% PFA for 20 min at room temperature. The fixed cells were washed with PBS. For immunostaining, cells were permeabilized and blocked with PBS containing 10% normal donkey serum (Jackson ImmunoResearch) and 0.1% Triton-X100 for 1 h at room temperature. Primary antibodies against phospho-LATS2 (Ser 83), phospho-histone H3(Ser 28), and anti-phospho-MPM2 (see Table S3 in Supplementary Material) were incubated for 1 h at room temperature. […] Cells were then washed twice with PBS containing 0.1% Triton-X100. […] Fifty fields per well were imaged with quadruplicate wells for each condition. Image analysis was done using the CV7000 image analysis software (Yokogawa Electric Corporation). Between 100 and 1,000 mitotic cells per condition were segmented applying object identification parameters to select for bright MPM2 labeling. Using a nuclear identifier protocol, minimum intensity thresholds were set for pLATS2(Ser 83) and the pH3(Ser 28) signals, and the resulting identified objects were eroded, dilated, and filtered for size by user-defined thresholds. […] The same thresholds were applied for all of the inhibitor-treated samples, which were processed, imaged, and analyzed in parallel with control DMSO-treated cells. Data were fit using a four-parameter, variable slope fit in Prism (GraphPad).
Assay [2] has as its system pAuroraB(Thr 232), pH3(Ser 10), pH3(Ser 28) in HeLa cells. Description: Immunoblotting of pAuroraB(Thr 232), pH3(Ser 28) and pH3(Ser 10). It counts as cell-based, human. The settings on record: immunoblot; for Effect on pH3(Ser 10), pH3(Ser 28), pAuroraB(Thr 232): dose–response. (In western blotting, separated proteins are transferred to a membrane and probed.)
Assay [3] has as its target 363 human kinases (including Aurora A/B/C) (Homo sapiens, UniProt Q92918). Nature of the assay: biochemical. It counts as biochemical. As to conditions: HPK1/MAP4K1; for remaining activity at 0.5 µM / remaining activity at 0.1 µM: read-out: % Enzyme Activity (relative to DMSO controls); for remaining activity at 0.1 µM: 100 nM.
From the text: (§1) However, the Aurora A/B selectivity ratios derived from our in vitro and in vivo data can be compared to prioritize inhibitors.
The target in assay [4] is T1, 363 human kinases (including Aurora A/B/C) (Homo sapiens, UniProt P25098).
T1 sequence (P25098 1-689): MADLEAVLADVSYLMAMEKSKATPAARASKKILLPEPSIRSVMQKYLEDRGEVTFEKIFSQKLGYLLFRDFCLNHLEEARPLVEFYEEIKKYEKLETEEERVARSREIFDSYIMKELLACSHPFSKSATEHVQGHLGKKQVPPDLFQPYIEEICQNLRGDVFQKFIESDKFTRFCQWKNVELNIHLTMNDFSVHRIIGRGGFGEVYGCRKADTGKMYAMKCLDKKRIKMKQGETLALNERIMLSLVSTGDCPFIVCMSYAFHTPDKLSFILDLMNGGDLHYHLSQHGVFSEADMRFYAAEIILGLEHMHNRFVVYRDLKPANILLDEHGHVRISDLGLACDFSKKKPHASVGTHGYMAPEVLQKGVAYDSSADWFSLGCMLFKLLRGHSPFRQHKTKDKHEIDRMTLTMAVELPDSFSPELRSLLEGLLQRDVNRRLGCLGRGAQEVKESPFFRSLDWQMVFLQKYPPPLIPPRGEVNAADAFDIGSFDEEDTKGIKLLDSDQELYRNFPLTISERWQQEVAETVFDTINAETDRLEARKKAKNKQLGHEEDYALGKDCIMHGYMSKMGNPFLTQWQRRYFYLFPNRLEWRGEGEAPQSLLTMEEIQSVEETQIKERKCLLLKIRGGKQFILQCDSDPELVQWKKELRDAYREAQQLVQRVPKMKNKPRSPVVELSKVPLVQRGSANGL
Nature of the assay: biochemical. It counts as biochemical. As to conditions: GRK2; for remaining activity at 0.5 µM / remaining activity at 0.1 µM: read-out: % Enzyme Activity (relative to DMSO controls); for remaining activity at 0.1 µM: 100 nM.
From the text: as §1

The target in assay [5] is T2, 363 human kinases (including Aurora A/B/C) (Homo sapiens, UniProt Q8NG66).
T2 sequence (Q8NG66 1-645): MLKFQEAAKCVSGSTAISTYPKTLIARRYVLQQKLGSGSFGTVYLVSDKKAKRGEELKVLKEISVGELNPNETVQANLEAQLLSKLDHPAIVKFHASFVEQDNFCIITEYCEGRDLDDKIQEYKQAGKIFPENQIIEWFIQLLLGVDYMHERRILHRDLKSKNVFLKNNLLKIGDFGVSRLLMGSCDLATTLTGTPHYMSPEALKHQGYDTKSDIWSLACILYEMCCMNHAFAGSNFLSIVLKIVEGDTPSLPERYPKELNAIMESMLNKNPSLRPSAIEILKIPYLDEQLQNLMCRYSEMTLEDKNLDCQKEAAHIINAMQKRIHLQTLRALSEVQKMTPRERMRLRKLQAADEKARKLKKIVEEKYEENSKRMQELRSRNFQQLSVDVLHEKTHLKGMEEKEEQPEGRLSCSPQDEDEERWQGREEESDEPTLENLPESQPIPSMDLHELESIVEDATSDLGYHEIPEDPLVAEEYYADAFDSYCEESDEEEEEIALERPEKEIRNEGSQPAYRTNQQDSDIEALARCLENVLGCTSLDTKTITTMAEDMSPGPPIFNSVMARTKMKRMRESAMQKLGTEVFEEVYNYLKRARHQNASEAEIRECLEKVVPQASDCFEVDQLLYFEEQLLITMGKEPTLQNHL
Nature of the assay: biochemical. It counts as biochemical. The settings on record: NEK11; for remaining activity at 0.5 µM / remaining activity at 0.1 µM: read-out: % Enzyme Activity (relative to DMSO controls); for remaining activity at 0.1 µM: 100 nM.
From the text: as §1

Assay [6] has as its target 363 human kinases (including Aurora A/B/C) (Homo sapiens, UniProt P24723). Description: biochemical. The assay is classed as biochemical. The settings on record: PKCeta; for remaining activity at 0.5 µM / remaining activity at 0.1 µM: read-out: % Enzyme Activity (relative to DMSO controls); for remaining activity at 0.1 µM: 100 nM.
From the text: as §1
In assay [7] the target is 363 human kinases (including Aurora A/B/C) (Homo sapiens, UniProt P23458). Description: biochemical. It counts as biochemical. As to conditions: JAK1; for remaining activity at 0.5 µM / remaining activity at 0.1 µM: read-out: % Enzyme Activity (relative to DMSO controls); for remaining activity at 0.1 µM: 100 nM.
Chain of 363 human kinases (including Aurora A/B/C) (Homo sapiens, UniProt P23458) (P23458 whole entry): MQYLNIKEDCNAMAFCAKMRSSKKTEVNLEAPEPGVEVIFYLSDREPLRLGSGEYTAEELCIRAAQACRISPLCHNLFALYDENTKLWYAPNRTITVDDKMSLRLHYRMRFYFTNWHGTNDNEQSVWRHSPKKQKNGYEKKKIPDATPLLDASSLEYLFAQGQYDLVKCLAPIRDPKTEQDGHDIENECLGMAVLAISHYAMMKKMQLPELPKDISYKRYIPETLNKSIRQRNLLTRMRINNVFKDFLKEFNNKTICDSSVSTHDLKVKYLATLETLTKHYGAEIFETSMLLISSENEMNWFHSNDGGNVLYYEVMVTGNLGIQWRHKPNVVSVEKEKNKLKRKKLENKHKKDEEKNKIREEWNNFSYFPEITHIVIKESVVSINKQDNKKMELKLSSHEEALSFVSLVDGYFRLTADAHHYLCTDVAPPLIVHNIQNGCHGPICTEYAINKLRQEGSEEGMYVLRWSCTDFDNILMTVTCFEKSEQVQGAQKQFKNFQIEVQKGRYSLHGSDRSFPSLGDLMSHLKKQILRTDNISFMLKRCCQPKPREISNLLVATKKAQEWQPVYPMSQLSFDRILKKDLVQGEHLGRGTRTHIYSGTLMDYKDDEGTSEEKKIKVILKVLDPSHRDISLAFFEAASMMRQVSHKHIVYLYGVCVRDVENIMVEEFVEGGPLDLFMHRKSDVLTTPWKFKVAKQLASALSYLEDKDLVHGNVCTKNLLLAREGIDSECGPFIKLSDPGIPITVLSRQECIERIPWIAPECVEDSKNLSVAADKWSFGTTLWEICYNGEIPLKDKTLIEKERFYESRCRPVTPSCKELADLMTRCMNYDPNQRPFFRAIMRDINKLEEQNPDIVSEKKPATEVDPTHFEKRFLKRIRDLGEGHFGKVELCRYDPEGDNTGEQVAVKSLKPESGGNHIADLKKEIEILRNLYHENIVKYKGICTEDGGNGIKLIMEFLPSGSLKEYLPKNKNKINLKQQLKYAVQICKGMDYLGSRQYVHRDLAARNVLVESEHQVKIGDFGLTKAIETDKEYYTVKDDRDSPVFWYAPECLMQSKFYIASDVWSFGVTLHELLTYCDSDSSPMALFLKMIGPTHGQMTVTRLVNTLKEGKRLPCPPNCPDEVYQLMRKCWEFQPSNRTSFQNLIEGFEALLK
From the text: as §1
Assay [8] concerns the target 363 human kinases (including Aurora A/B/C) (Homo sapiens, UniProt P45984). Nature of the assay: biochemical. It counts as biochemical. As to conditions: JNK2; for remaining activity at 0.5 µM / remaining activity at 0.1 µM: read-out: % Enzyme Activity (relative to DMSO controls); for remaining activity at 0.1 µM: 100 nM.
From the text: as §1
Assay [9] concerns the target 363 human kinases (including Aurora A/B/C) (Homo sapiens, UniProt P53667). Nature of the assay: biochemical. The settings on record: LIMK1; for remaining activity at 0.5 µM / remaining activity at 0.1 µM: read-out: % Enzyme Activity (relative to DMSO controls); for remaining activity at 0.1 µM: 100 nM. It counts as biochemical.
From the text: as §1
Assay [10] addresses T3, 363 human kinases (including Aurora A/B/C) (Homo sapiens, UniProt P51955).
T3 sequence (P51955 1-445): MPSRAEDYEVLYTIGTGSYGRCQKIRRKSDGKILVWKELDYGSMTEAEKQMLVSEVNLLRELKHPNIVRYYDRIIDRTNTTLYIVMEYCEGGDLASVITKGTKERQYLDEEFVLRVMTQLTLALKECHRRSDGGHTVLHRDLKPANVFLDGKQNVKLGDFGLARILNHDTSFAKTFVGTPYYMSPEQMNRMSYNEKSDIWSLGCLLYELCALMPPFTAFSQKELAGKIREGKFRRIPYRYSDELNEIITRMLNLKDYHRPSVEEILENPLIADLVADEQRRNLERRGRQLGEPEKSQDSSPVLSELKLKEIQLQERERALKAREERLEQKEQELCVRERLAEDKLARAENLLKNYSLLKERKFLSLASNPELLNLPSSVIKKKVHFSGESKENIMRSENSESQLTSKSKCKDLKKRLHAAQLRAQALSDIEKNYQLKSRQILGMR
Nature of the assay: biochemical. It counts as biochemical. As to conditions: NEK2; for remaining activity at 0.5 µM / remaining activity at 0.1 µM: read-out: % Enzyme Activity (relative to DMSO controls); for remaining activity at 0.1 µM: 100 nM.
From the text: as §1

Assay [11] concerns the target 363 human kinases (including Aurora A/B/C) (Homo sapiens, UniProt P32298). Nature of the assay: biochemical. As to conditions: GRK4; for remaining activity at 0.5 µM / remaining activity at 0.1 µM: read-out: % Enzyme Activity (relative to DMSO controls); for remaining activity at 0.1 µM: 100 nM. It counts as biochemical.
From the text: as §1

Chain of 363 human kinases (including Aurora A/B/C) (Homo sapiens, UniProt P24723) (P24723 whole entry): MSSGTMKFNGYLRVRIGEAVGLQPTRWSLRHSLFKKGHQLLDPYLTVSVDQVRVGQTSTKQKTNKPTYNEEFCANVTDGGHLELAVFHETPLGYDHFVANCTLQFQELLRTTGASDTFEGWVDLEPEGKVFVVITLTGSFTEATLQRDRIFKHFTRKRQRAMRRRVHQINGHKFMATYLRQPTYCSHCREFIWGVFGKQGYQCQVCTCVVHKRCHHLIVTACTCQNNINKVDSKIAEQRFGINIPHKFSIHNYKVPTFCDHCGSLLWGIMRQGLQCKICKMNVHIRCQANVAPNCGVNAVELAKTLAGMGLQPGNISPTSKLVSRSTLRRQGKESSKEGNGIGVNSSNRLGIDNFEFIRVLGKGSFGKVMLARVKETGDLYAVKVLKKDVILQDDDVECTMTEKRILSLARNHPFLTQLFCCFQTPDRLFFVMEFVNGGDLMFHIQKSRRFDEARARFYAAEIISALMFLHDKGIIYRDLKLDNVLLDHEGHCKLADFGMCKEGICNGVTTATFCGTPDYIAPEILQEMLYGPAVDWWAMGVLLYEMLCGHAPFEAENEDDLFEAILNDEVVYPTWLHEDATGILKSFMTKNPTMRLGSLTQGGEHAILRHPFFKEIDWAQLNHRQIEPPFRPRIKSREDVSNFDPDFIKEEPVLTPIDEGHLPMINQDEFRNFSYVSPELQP
Chain of 363 human kinases (including Aurora A/B/C) (Homo sapiens, UniProt P45984) (P45984 whole entry): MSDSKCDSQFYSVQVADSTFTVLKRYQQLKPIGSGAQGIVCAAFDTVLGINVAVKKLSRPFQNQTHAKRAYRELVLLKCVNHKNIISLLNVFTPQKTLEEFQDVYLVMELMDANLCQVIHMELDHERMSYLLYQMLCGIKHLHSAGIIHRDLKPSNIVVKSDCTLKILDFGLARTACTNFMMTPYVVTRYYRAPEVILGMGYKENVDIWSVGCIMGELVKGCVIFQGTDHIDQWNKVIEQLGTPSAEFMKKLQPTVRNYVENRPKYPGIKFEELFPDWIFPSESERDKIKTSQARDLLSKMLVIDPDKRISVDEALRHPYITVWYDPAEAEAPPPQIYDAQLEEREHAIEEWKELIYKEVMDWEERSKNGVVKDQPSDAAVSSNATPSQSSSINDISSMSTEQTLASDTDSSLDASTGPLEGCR
Chain of 363 human kinases (including Aurora A/B/C) (Homo sapiens, UniProt P32298) (P32298 whole entry): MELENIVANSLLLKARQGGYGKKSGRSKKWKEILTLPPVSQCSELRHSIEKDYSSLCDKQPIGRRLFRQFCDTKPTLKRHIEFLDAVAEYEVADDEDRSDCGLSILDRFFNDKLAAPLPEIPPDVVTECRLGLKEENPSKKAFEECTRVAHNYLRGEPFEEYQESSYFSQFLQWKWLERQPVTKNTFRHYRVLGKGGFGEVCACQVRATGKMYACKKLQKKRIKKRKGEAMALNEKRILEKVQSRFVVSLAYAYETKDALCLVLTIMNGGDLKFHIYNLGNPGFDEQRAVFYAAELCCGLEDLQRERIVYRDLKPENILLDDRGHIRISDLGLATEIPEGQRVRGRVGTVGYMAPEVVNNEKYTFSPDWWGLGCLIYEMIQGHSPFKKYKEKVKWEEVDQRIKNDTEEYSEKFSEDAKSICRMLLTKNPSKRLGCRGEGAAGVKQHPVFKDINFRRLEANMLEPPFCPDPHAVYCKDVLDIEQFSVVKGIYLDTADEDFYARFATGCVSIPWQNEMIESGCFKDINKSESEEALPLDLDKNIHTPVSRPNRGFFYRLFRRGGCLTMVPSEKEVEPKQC
Chain of 363 human kinases (including Aurora A/B/C) (Homo sapiens, UniProt Q92918) (Q92918 whole entry): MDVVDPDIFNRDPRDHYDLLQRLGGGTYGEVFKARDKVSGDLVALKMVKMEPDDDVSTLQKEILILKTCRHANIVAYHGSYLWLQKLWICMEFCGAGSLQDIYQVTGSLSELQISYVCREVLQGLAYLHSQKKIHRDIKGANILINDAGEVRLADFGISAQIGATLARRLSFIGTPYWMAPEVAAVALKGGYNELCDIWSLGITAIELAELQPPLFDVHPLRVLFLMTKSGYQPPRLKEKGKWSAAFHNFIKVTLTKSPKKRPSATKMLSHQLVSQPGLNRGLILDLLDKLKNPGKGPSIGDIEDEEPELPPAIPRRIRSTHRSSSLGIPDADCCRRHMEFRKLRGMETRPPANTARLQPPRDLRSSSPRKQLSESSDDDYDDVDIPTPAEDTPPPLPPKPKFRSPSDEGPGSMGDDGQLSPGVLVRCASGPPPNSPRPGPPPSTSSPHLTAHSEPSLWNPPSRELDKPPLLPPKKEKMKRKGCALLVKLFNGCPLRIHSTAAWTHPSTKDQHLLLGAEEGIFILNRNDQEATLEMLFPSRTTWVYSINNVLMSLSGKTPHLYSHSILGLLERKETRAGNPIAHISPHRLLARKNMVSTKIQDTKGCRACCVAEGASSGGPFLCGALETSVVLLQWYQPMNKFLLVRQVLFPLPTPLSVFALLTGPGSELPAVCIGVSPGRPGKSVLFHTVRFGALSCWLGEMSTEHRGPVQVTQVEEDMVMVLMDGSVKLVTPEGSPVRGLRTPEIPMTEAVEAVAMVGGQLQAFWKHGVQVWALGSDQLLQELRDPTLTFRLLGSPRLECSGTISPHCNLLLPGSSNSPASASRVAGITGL
Chain of 363 human kinases (including Aurora A/B/C) (Homo sapiens, UniProt P53667) (P53667 whole entry): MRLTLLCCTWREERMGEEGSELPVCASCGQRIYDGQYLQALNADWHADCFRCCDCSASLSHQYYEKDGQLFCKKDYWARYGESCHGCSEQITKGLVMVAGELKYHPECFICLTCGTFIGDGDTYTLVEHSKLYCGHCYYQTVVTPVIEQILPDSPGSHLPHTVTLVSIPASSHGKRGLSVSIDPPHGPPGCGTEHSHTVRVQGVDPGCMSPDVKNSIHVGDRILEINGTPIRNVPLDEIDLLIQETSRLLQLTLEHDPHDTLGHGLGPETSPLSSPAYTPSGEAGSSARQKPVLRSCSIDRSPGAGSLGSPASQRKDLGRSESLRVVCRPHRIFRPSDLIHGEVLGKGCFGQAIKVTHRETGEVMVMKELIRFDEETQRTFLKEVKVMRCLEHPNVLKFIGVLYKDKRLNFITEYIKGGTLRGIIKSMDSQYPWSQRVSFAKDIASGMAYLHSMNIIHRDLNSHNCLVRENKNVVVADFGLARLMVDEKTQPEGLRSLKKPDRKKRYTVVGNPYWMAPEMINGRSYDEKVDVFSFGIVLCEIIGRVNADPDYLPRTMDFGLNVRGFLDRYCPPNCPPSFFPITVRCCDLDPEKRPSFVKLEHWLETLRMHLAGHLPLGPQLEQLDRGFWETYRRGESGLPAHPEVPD

As for `O=C(c1cccc(Cl)c1F)N1CCN(Cc2cccc(Nc3nccs3)n2)CC1` [MK-8745], the “pHistone H3 (Ser28) IC50” value in assay [1] was “NE (9 μM); also recorded: NE@9 µM”. Moreover, the “Effect on pH3(Ser 10), pH3(Ser 28), pAuroraB(Thr 232)” value (shortened to “Effect”) in [2] was “no effect”. In addition, the “% Enzyme Activity (relative to DMSO controls)” value in assay [3] (500 nM) is on record as 81.94%; in [4] (500 nM), 103.92%; in [5] (500 nM) it was 75.49%; in assay [6] (500 nM), 164.83%; in assay [7] (500 nM), 103.50%; in assay [8] (500 nM), 49.53%. For the same compound, the “% Enzyme Activity (relative to DMSO controls)” value in [9] (500 nM) is recorded as 99.25%; in [10] (500 nM), 103.20%; in assay [11] (500 nM) it was 94.47%. Further, the remaining activity at 0.5 µM was 87.3% in assay [3] (500 nM); 105% in [4] (500 nM); 76.6% in assay [5] (500 nM); 166% in assay [6] (500 nM); 104% in [7] (500 nM); 49.7% in assay [8] (500 nM). Further, the remaining activity at 0.5 µM turned out to be 101% in assay [9] (500 nM), 104% in assay [10] (500 nM) and 94.8% in [11] (500 nM).

Regarding `CCn1cc(-c2ccnc3[nH]c(-c4cccc(CN(C)C)c4)cc23)c(-c2ccc(NC(=O)N(C)C)cc2)n1` [GSK1070916], the “Concentration completely eliminating pH3(Ser 28) labeling without affecting pLATS2(Ser 83) labeling” value in assay [1] is reported as under 100 nM. Further, in [1] (Homo sapiens, 8 h, read-out: pHistone H3 (Ser28) IC50), the IC50 was found to be 6 nM. Moreover, the “Concentration eliminating Aurora B activity without affecting pAuroraA (Thr 288)” value in [2] is under 100 nM. The “Effect” value in [2] is “eliminated”. Also, the remaining activity at 0.1 µM in assay [3] was found to be 109%; in assay [4] it was 101%; in assay [5], 77.7%; in assay [6] it was 103%; in assay [7], 95.8%; in assay [8], 94.7%. Further, the results for the remaining activity at 0.1 µM in assay [9], in [10] and in [11] were 96.8%, 110% and 95.2%, respectively.

As to `O=C(O)[C@]1(Cc2cccc(Nc3nccs3)n2)CC[C@@H](Oc2cccc(Cl)c2F)CC1` [MK-5108], the “pHistone H3 (Ser28) IC50” value in assay [1] is reported as “NE (9 μM); also recorded: NE@9 μM”. For the same compound, the “Effect” value in assay [2] was “no effect”. The remaining activity at 0.1 µM is 105% in [3]; 102% in assay [4]; 86.5% in assay [5]; 134% in [6]; 99.4% in assay [7]; 95.7% in [8]. Besides, the remaining activity at 0.1 µM in assay [9] came out at 96.9%; in [10] it was 84.3%; in assay [11], 96.7%. For the same compound, the remaining activity at 0.5 µM in [3] (500 nM) was 82.1%; in assay [4] (500 nM), 106%; in [5] (500 nM), 73.9%; in [6] (500 nM), 115%; in [7] (500 nM), 61.6%; in assay [8] (500 nM), 86.7%. Besides, the remaining activity at 0.5 µM is 69% in assay [9] (500 nM), 105% in assay [10] (500 nM) and 92.9% in assay [11] (500 nM).
